Measured values as given in publication PMC12463120, “Phenylalanine‐Based DNA‐Encoded Chemical Libraries for the Discovery of Potent and Selective Small Organic Ligands Against Markers of Cancer and Immune Cells” (Advanced Science, 2025).

Molecular target: T1, NKG2D-Fc (Homo sapiens, UniProt P26718)
T1 construct: the extracellular domain of NKG2D was fused with an IgG Fc fragment; made in house; host or cells: CHO cells
T1 sequence (P26718 73-216 limits assumed): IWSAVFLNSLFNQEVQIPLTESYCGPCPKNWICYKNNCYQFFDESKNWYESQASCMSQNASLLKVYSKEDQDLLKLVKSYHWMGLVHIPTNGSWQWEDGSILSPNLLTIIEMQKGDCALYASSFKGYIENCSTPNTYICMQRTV
Assay: Flow cytometry on streptavidin sepharose beads coated with NKG2D-Fc
Type: binding
Conditions: 300 nM
Experimental: HT1080.hPSMA and PC3.hACP3 cell lines were generated by lentiviral transduction on wild type cells (HT1080.wt and PC3.wt), according to published procedures9. For long-term storage, cell lines were maintained in liquid nitrogen. Prior to in vitro and in vivo experiments, cells were cultured in DMEM (PC3.wt, PC3.hACP3, HT1080.wt, and HT1080.hPSMA) or RPMI medium (SK-RC-52) (medium provided by Invitrogen) supplemented with FCS (10%, Invitrogen) and antibiotic-antimycotic (1%, AA, Invitrogen) at 37 °C and 5% CO2. For passaging, cells were detached using Trypsin-EDTA 0.05% (Invitrogen) when reaching 90% confluency and re-seeded at a dilution of 1:3 (PC3.hACP3 and PC3.wt) […]
2.17 Flow cytometry experiments on cells
Cancer cells were detached with an Accutase® cell detachment solution, resuspended in a standard culture medium, and transferred to falcon tubes. Cells were counted and centrifuged at 400 rcf for 3 min. […] Data were acquired halting the measurement at 10´ 000 events on a Cytoflex S flow cytometer (Beckman Coulter), and analyzed using the FlowJo software v10 (BD Biosciences). […]
plate (20 µL/well). […] Data were acquired halting the measurement at 10’000 events on a Cytoflex S flow cytometer (Beckman Coulter) and analyzed using the FlowJo software v10 (BD Biosciences). […]

- binding on NKG2D-Fc-coated streptavidin sepharose beads by flow cytometry: significant shift in binding
SMILES: CC(C)Oc1ccc(-c2cccc(C[C@H](NC(=O)c3ccccc3-c3ccc(C(F)(F)F)cc3)C(=O)N[C@@H](CCCCNC(=S)Nc3ccc4c(c3)C(=O)OC43c4ccc(O)cc4Oc4cc(O)ccc43)C(=O)O)c2)c(F)c1 [compound 30]
